Source: paper PMC8379154, “UbiD domain dynamics underpins aromatic decarboxylation” (Nature Communications, 2021)

Assays:
BsVdcCD = target: T1, BsVdcCD (Bacillus subtilis, UniProt P94405); assay: overnight endpoint HPLC decarboxylation assay; assay type: biochemical; conditions: 5 mM substrate, 10 µM enzyme, prFMN, MnCl2, 100 mM KPi pH 6, anaerobic, 18 h
T1 construct: gene bsdC; VdcC and VdcD expressed in E. coli BL21(DE3), His tag on C-terminus of VdcC and/or N-terminus of VdcD; reconstituted in vitro with prFMN and Mn2+; with Phenolic acid decarboxylase subunit D
T1 sequence (P94405 1-473): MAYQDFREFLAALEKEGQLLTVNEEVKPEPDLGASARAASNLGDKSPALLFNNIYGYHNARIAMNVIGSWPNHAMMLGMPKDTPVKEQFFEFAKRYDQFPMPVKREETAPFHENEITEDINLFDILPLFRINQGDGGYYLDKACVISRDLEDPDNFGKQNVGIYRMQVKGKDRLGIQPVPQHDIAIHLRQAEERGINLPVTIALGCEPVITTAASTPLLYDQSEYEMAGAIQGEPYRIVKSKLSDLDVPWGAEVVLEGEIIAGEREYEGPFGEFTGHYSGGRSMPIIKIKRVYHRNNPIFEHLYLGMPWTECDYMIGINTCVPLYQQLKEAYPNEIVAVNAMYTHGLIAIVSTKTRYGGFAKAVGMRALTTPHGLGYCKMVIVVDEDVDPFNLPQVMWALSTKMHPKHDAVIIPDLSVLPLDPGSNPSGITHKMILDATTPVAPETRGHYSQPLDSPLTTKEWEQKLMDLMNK
T1 sequence (C0H3U9 1-75 partner): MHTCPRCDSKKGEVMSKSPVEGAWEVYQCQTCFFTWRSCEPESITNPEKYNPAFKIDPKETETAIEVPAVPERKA

[1] = target: Sedimentibacter hydroxybenzoicus VdcC, untagged (Sedimentibacter hydroxybenzoicus); assay: crystal structure; apo complexes; F222 closed (7AE4), P1 open (7AE5), P212121 ShVdcCD^V59X (7AE7); molecular replacement with E. coli UbiD domains

Row | Compound | overnight endpoint HPLC decarboxylation assay (BsVdcCD) | stoichiometry N [1]
1 | COc1cc(C(=O)O)cc(OC)c1O [syringic acid] | syringic acid, for which product formation could only be detected in the presence of BsVdcCD | –
2 | COc1cc(C(=O)O)ccc1O [vanillic acid] | the VdcC + VdcD reconstituted samples demonstrated considerable activity in contrast to isolated VdcC | –
3 | Sedimentibacter hydroxybenzoicus VdcC, untagged (enzyme) | – | 6
